Data from the CheMixHub drug solubility set.

Experiment: xn = mol fraction of the nth substance listed, in the solute-free solvent

O=C1NS(=O)(=O)c2ccccc21 + CO + CC#N
solubility (g/100 g solution)
Details | x2 = 0.1002 | x2 = 0.2003 | x2 = 0.2998 | x2 = 0.4002 | x2 = 0.4998 | x2 = 0.6003 | x2 = 0.7001 | x2 = 0.7995 | x2 = 0.9003
293.15 K | 5.52 | 7.2 | 8.84 | 9.66 | 10 | 10.1 | 9.63 | 8.67 | 7.25
298.15 K | 5.88 | 7.96 | 9.73 | 10.6 | 11 | 11.1 | 10.6 | 9.56 | 8.07
303.15 K | 6.65 | 9.04 | 10.9 | 11.9 | 12.5 | 12.5 | 12.1 | 11 | 9.1
308.15 K | 7.35 | 9.93 | 12.1 | 13.2 | 13.8 | 14 | 13.6 | 12.1 | 10.1
313.15 K | 8.31 | 11.2 | 13.3 | 14.7 | 15.4 | 15.6 | 15.1 | 13.9 | 11.7
318.15 K | 9.32 | 12.7 | 15.2 | 16.8 | 17.6 | 17.7 | 17.2 | 15.8 | 13.3
323.15 K | 10.6 | 14.1 | 16.7 | 18.4 | 19.3 | 19.6 | 19.1 | 17.6 | 15.1

O=c1ccc2ccccc2o1 + CO + O
solubility (g/100 g solution)
Details | 278.15 K | 283.15 K | 288.15 K | 293.15 K | 298.15 K | 303.15 K | 308.15 K | 313.15 K | 318.15 K
x2 = 0.1 | 0.0349 | 0.0594 | 0.105 | 0.171 | 0.28 | 0.435 | 0.655 | 0.988 | 1.41
x2 = 0.2 | 0.147 | 0.236 | 0.385 | 0.598 | 0.922 | 1.43 | 2.06 | 3.08 | 4.3
x2 = 0.3 | 0.262 | 0.479 | 0.869 | 1.6 | 2.58 | 4.47 | 7.35 | 12.8 | 19.9
x2 = 0.4 | 0.573 | 1.11 | 1.99 | 3.53 | 6.25 | 10.8 | 17.7 | 28.7 | 41.9
x2 = 0.5 | 1.13 | 1.96 | 3.86 | 6.41 | 11.2 | 18.6 | 28.4 | 43.2 | 59.6
x2 = 0.6 | 1.82 | 3.3 | 5.98 | 9.8 | 16 | 24.8 | 38.3 | 52.1 | 67
x2 = 0.7 | 2.64 | 4.53 | 7.8 | 12.7 | 20.2 | 30.4 | 42.9 | 59.2 | 73.3
x2 = 0.8 | 3.28 | 5.51 | 9.32 | 15.7 | 22.1 | 34.3 | 46.8 | 62.9 | 77.3
x2 = 0.9 | 4.13 | 6.53 | 11.1 | 17.5 | 25.5 | 36.7 | 50.3 | 65.3 | 79.6

CCCCN1CCCCC1C(=O)Nc1c(C)cccc1C.Cl.O (stereo not drawn) + CO + O
solubility (g/100 g solution)
Details | 293.15 K | 298.15 K | 303.15 K | 308.15 K | 313.15 K | 318.15 K | 323.15 K | 328.15 K | 333.15 K
x2 = 0.1 | 2.92 | 3.74 | 5.36 | 6.77 | 8.14 | 9.76 | 11.3 | 13.1 | 14.9
x2 = 0.2 | 3.04 | 4.11 | 5.31 | 7.06 | 9.3 | 11.4 | 14.1 | 15.8 | 19.5
x2 = 0.3 | 3.57 | 4.29 | 5.13 | 7.32 | 10.9 | 14.7 | 19.7 | 25.1 | 30.3
x2 = 0.4 | 3.64 | 4.18 | 5.89 | 7.92 | 11.9 | 17.4 | 22.3 | 28 | 33.2
x2 = 0.5 | 4.08 | 4.96 | 6.91 | 9.37 | 13.3 | 18.7 | 23.4 | 28.9 | 35.2
x2 = 0.6 | 5.88 | 6.91 | 8.26 | 10.9 | 14.8 | 19.1 | 23.4 | 29.8 | 35.8
x2 = 0.7 | 7.34 | 8.09 | 9.74 | 12.7 | 16.6 | 19.9 | 23.5 | 30.3 | 36.2
x2 = 0.8 | 8.13 | 9.32 | 12 | 14.3 | 17.3 | 20.6 | 24.5 | 30.2 | –
x2 = 0.9 | 8.65 | 10.1 | 13 | 16 | 18.9 | 21.6 | 25.4 | 30.3 | –
